Experiments:
Format in all cases: biochemical
MKK7 = target: T1, MKK7 (Homo sapiens, UniProt O14733); experiment: 33PanQinase enzyme assay, MKK7; set-up: purchased ProQinase GmbH, Freiburg, Germany (33PanQinase Assay Service); conditions: ratio IC50(MKK7)/IC50(MKK4)
T1 sequence (O14733 1-419): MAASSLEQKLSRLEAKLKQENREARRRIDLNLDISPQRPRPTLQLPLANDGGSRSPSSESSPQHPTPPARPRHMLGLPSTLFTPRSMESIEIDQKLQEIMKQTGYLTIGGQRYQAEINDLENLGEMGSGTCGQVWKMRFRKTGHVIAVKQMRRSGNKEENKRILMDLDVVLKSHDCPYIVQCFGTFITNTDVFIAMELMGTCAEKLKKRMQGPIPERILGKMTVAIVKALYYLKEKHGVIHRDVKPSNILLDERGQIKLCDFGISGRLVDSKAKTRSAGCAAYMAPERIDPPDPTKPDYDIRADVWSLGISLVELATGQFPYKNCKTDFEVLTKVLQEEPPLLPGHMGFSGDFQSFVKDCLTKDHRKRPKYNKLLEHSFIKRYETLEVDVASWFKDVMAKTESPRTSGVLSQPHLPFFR
Procedure: (§1) The kinase activities of the compounds of the invention were measured using the 33PanQinase® Assay Service provided by ProQinase GmbH, Freiburg, Germany. Details of the assay conditions are disclosed on the website of ProQinase (https://www.proginase.com/products-services-biochemical-assay-services/kinase-assays). In brief, all kinase assays were performed in 96-well FlashPlates™ from PerkinElmer (Boston, MA, USA) in a 50 μl reaction volume. The reaction cocktail was pipetted in four steps in the following order: • 20 μl of assay buffer (standard buffer) • 5 μl of ATP solution (in H2O) • 5 μl of test compound (in 10% DMSO) • 20 μl enzyme/subtrate mix
(§2) The reaction cocktails were incubated at 30° C. for 60 minutes. The reaction is stopped with 50 μl of 2% (v/v) H3PO4, plates were aspirated and washed two times with 200 μl 0.9% (w/v) NaCl. Incorporation of ^33Pi was determined with a microplate scintillation counter (Microbeta, Wallac).
(§3) All assays were performed with a BeckmanCoulter/SAGIAN™ Core System.
(§4) In case of single concentration assays, the potency of the test compound is expressed as % residual activity. […] The fitting method used was a least-squares fit.
(§5) Selectivity of test compounds against BRaf, JNK1 and MKK7, altogether denominated as off-targets was calculated by the ratio of IC50 (off-target)/IC50 (MKK4) and categorized as follows: […]

MKK4 = target: T2, MKK4 (Homo sapiens, UniProt P45985); experiment: 33PanQinase enzyme assay, MKK4; conditions: assay 'IC50'; read-out: Potency MKK4 (IC50)
T2 construct: purchased ProQinase GmbH, Freiburg, Germany (33PanQinase Assay Service)
T2 sequence (P45985 1-399): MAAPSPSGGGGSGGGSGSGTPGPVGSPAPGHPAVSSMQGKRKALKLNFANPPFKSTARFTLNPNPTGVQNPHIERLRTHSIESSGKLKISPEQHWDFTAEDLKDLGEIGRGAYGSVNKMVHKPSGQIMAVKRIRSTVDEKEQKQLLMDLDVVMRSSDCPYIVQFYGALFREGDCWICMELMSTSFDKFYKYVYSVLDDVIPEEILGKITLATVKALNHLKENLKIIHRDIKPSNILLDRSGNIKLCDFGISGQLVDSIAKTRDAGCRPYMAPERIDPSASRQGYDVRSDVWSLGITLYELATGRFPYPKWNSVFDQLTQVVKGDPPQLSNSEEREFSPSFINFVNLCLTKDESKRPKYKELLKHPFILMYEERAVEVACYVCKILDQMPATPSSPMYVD
Procedure: as §1, §2, §3, §4
Inhibition potency against MKK4 is categorized as follows:
Assay at single concentration (100 nM):

BRaf = target: T3, BRaf (Homo sapiens, UniProt P15056); experiment: 33PanQinase enzyme assay, BRaf; conditions: ratio IC50(BRaf)/IC50(MKK4)
T3 construct: purchased ProQinase GmbH, Freiburg, Germany (33PanQinase Assay Service)
T3 sequence (P15056 whole entry, species assumed): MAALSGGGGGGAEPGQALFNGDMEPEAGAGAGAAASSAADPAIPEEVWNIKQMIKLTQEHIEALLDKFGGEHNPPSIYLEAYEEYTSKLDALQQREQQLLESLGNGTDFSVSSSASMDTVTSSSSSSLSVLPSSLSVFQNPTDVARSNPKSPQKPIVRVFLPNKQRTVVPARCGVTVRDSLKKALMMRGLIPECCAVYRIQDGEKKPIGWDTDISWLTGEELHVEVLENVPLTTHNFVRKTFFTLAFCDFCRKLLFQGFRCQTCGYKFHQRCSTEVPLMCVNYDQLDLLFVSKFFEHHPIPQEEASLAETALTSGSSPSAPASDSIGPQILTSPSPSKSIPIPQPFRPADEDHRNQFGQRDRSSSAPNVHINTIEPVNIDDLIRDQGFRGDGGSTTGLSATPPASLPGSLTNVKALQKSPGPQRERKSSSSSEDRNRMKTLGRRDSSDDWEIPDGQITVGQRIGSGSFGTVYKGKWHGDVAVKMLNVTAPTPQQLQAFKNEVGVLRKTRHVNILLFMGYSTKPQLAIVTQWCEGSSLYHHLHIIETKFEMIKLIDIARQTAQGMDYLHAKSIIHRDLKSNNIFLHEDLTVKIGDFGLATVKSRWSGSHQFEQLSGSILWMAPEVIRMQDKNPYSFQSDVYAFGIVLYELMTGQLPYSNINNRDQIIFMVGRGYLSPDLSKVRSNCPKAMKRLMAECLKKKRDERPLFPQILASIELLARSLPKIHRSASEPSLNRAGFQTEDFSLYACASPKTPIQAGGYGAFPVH
Procedure: as §1, §2, §3, §4, §5

JNK1 = JNK1 (Homo sapiens, UniProt P45983); experiment: 33PanQinase enzyme assay, JNK1; set-up: purchased ProQinase GmbH, Freiburg, Germany (33PanQinase Assay Service); conditions: ratio IC50(JNK1)/IC50(MKK4)
JNK1, sequence (P45983 whole entry): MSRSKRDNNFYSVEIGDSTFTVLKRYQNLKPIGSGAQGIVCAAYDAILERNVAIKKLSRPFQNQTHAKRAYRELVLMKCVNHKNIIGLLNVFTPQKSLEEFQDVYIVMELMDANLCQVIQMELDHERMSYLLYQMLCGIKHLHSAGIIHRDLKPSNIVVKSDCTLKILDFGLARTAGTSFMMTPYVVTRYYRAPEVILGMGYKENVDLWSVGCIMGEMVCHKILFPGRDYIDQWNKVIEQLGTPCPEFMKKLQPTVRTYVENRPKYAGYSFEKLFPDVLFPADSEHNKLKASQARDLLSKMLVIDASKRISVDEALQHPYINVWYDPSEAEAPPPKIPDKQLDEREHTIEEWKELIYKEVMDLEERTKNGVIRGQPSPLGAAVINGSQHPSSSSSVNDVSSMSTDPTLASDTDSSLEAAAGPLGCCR
Procedure: as §1, §2, §3, §4, §5

| SMILES | Selectivity IVIKK7, IC50(off-target)/IC50(MKK4) (MKK7) | IC50 (MKK4) [nM] | Selectivity Braf, IC50(off-target)/IC50(MKK4) (BRaf) | Selectivity JNK1, IC50(off-target)/IC50(MKK4) (JNK1) |
| --- | --- | --- | --- | --- |
| CCCS(=O)(=O)Nc1c(F)ccc(C(=O)c2c[nH]c3ncc(-c4cnc(N5CCN(CCO)CC5)nc4)cc23)c1F [Example 198, N-(2,6-difluoro-3-(5-(2-(4-(2-hydroxyethyl)piperazin-1-yl)pyrimidin-5-yl)-1H-pyrrolo[2,3-b]pyridine-3-carbonyl)phenyl)propane-1-sulfonamide] | +++ (IC50(off-target)/IC50(MKK4) > 100) | 100 to 1000 | ++ (100 ≥ IC50(off-target)/IC50(MKK4) > 10) | ++ (100 ≥ IC50(off-target)/IC50(MKK4) > 10) |
| CCCS(=O)(=O)Nc1c(F)ccc(C(=O)c2c[nH]c3ncc(-c4ccnnc4)cc23)c1F [Example 144, N-(2,6-difluoro-3-(5-(pyridazin-4-yl)-1H-pyrrolo[2,3-b]pyridine-3-carbonyl)phenyl)propane-1-sulfonamide] | +++ (IC50(off-target)/IC50(MKK4) > 100) | < 100 | ++ (100 ≥ IC50(off-target)/IC50(MKK4) > 10) | +++ (IC50(off-target)/IC50(MKK4) > 100) |
| CCCS(=O)(=O)Nc1c(F)ccc(C(=O)c2c[nH]c3ncc(-c4ccc(OCC(O)CO)cc4)cc23)c1F (stereo not shown) [Example 154, N-(3-(5-(4-(2,3-dihydroxypropoxy)phenyl)-1H-pyrrolo[2,3-b]pyridine-3-carbonyl)-2,6-difluorophenyl)propane-1-sulfonamide] | +++ (IC50(off-target)/IC50(MKK4) > 100) | < 100 | ++ (100 ≥ IC50(off-target)/IC50(MKK4) > 10) | ++ (100 ≥ IC50(off-target)/IC50(MKK4) > 10) |
| CS(=O)(=O)Nc1c(F)ccc(C(=O)c2c[nH]c3ncc(-c4cccc5ccccc45)cc23)c1F [Example 214, N-(2,6-difluoro-3-(5-(naphthalen-1-yl)-1H-pyrrolo[2,3-b]pyridine-3-carbonyl)phenyl)methanesulfonamide] | +++ (IC50(off-target)/IC50(MKK4) > 100) | 100 to 1000 | +++ (IC50(off-target)/IC50(MKK4) > 100) | ++ (100 ≥ IC50(off-target)/IC50(MKK4) > 10) |
| CCCS(=O)(=O)Nc1c(F)ccc(C(=O)c2c[nH]c3ncc(-c4cnc(N5CCC5)nc4)cc23)c1F [Example 199, N-(3-(5-(2-(azetidin-1-yl)pyrimidin-5-yl)-1H-pyrrolo[2,3-b]pyridine-3-carbonyl)-2,6-difluorophenyl)propane-1-sulfonamide] | +++ (IC50(off-target)/IC50(MKK4) > 100) | < 100 | ++ (100 ≥ IC50(off-target)/IC50(MKK4) > 10) | ++ (100 ≥ IC50(off-target)/IC50(MKK4) > 10) |
| CCCS(=O)(=O)Nc1ccc(F)c(C(=O)c2c[nH]c3ncc(-c4ccc5c(c4)C=C(C)N=S5(C)=O)cc23)c1F (stereo not shown) [Example 95, N-(3-(5-(1,3-dimethyl-1-oxido-1l4-benzo[e][1,2]thiazin-6-yl)-1H-pyrrolo[2,3-b]pyridine-3-carbonyl)-2,4-difluorophenyl)propane-1-sulfonamide] | +++ (IC50(off-target)/IC50(MKK4) > 100) | 100 to 1000 | ◯ (3 ≥ IC50(off-target)/IC50(MKK4)) | ◯ (3 ≥ IC50(off-target)/IC50(MKK4)) |
| CCCS(=O)(=O)Nc1c(F)ccc(C(=O)c2c[nH]c3ncc(-c4cnc(SC(C)C)nc4)cc23)c1F [Example 197, N-(2,6-difluoro-3-(5-(2-(isopropylthio)pyrimidin-5-yl)-1H-pyrrolo[2,3-b]pyridine-3-carbonyl)phenyl)propane-1-sulfonamide] | +++ (IC50(off-target)/IC50(MKK4) > 100) | 100 to 1000 | +++ (IC50(off-target)/IC50(MKK4) > 100) | ++ (100 ≥ IC50(off-target)/IC50(MKK4) > 10) |
| CCCS(=O)(=O)Nc1ccc(F)c(C(=O)c2c[nH]c3ncc(N4CCOCC4)cc23)c1F [Example 70, N-(2,4-difluoro-3-(5-morpholino-1H-pyrrolo[2,3-b]pyridine-3-carbonyl)phenyl)propane-1-sulfonamide] | +++ (IC50(off-target)/IC50(MKK4) > 100) | 100 to 1000 | ◯ (3 ≥ IC50(off-target)/IC50(MKK4)) | ++ (100 ≥ IC50(off-target)/IC50(MKK4) > 10) |
| O=C(c1ccc(F)c(NS(=O)(=O)Cc2ccccc2)c1)c1c[nH]c2ncc(-c3ccc(Cl)cc3)cc12 [Example 133, N-(5-(5-(4-chlorophenyl)-1H-pyrrolo[2,3-b]pyridine-3-carbonyl)-2-fluorophenyl)-1-phenylmethanesulfonamide] | +++ (IC50(off-target)/IC50(MKK4) > 100) | 100 to 1000 | ++ (100 ≥ IC50(off-target)/IC50(MKK4) > 10) | ◯ (3 ≥ IC50(off-target)/IC50(MKK4)) |

More lines, main results first:

| Selectivity IVIKK7, IC50(off-target)/IC50(MKK4) (MKK7) | IC50 (MKK4) [nM] | Selectivity Braf, IC50(off-target)/IC50(MKK4) (BRaf) | SMILES | Selectivity JNK1, IC50(off-target)/IC50(MKK4) (JNK1) |
| --- | --- | --- | --- | --- |
| +++ (IC50(off-target)/IC50(MKK4) > 100) | < 100 | +++ (IC50(off-target)/IC50(MKK4) > 100) | CCCS(=O)(=O)Nc1c(F)ccc(C(=O)c2c[nH]c3ncc(-c4cnc(C(C)(C)C)nc4)cc23)c1F [Example 196, N-(3-(5-(2-(tert-butyl)pyrimidin-5-yl)-1H-pyrrolo[2,3-b]pyridine-3-carbonyl)-2,6-difluorophenyl)propane-1-sulfonamide] | +++ (IC50(off-target)/IC50(MKK4) > 100) |
| +++ (IC50(off-target)/IC50(MKK4) > 100) | < 100 | +++ (IC50(off-target)/IC50(MKK4) > 100) | CCCS(=O)(=O)Nc1c(F)ccc(C(=O)c2c[nH]c3ncc(-c4cnc(SC)nc4)cc23)c1F [Example 195, N-(2,6-difluoro-3-(5-(2-(methylthio)pyrimidin-5-yl)-1H-pyrrolo[2,3-b]pyridine-3-carbonyl)phenyl)propane-1-sulfonamide] | +++ (IC50(off-target)/IC50(MKK4) > 100) |
| +++ (IC50(off-target)/IC50(MKK4) > 100) | < 100 | + (10 ≥ IC50(off-target)/IC50(MKK4) > 3) | CCCS(=O)(=O)Nc1c(F)ccc(C(=O)c2c[nH]c3ncc(-c4cccc(C(=O)O)c4)cc23)c1F [Example 223, 3-(3-(2,4-difluoro-3-(propylsulfonamido)benzoyl)-1H-pyrrolo[2,3-b]pyridin-5-yl)benzoic acid] | ++ (100 ≥ IC50(off-target)/IC50(MKK4) > 10) |
| +++ (IC50(off-target)/IC50(MKK4) > 100) | < 100 | +++ (IC50(off-target)/IC50(MKK4) > 100) | CCCS(=O)(=O)Nc1c(F)ccc(C(=O)c2c[nH]c3ncc(-c4ccncc4Cl)cc23)c1F [Example 173, N-(3-(5-(3-chloropyridin-4-yl)-1H-pyrrolo[2,3-b]pyridine-3-carbonyl)-2,6-difluorophenyl)propane-1-sulfonamide] | ++ (100 ≥ IC50(off-target)/IC50(MKK4) > 10) |

Source: patent US11912701B2, “Protein kinase inhibitors for promoting liver regeneration or reducing or preventing hepatocyte death” (HEPAREGENIX GMBH, priority 2018, dated 2024)
